For one assay, the system named is PMV. The note with it: cited from earlier work.
A further assay deals with PMIX. The note with it: cited from earlier work.
The test system of assay [1] is 3D7 strain of Plasmodium falciparum. The note with it: blood stage growth, read-out: Pf 3D7 EC50; cited from earlier work.
Another assay deals with PMX. To be noted: cited from earlier work.
The target in assay [2] is T1, recombinant Plasmodium vivax PMV (Plasmodium vivax, UniProt A5K302).
T1 construct: PvPMV (residues R35–R476) was prepared similarly; gp67 signal peptide (N); TEV protease cleavage site + FLAG tag (C); made in house; host or cells: Sf21 insect cells
T1 sequence (A5K302 35-476): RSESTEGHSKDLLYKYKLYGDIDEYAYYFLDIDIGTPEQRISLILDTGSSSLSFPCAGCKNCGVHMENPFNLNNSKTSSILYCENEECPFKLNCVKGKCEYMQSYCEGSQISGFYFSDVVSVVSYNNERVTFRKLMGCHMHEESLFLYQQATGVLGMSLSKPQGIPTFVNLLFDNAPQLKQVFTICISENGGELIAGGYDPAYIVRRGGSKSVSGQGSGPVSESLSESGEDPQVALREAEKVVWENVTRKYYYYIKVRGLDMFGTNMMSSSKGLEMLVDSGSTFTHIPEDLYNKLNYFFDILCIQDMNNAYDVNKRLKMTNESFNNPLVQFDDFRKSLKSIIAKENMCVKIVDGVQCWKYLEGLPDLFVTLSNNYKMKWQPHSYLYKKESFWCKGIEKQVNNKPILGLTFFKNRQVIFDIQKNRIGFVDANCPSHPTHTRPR
Description: Plasmepsin V fluorogenic substrate cleavage assay. Type of assay: biochemical. The note with it: recombinant P. vivax PMV; average of three independent experiments; read-out: PMV IC50 (SD). The text has this: To uncover nonpeptidomimetic drug‐like inhibitors of the aspartic protease PvPMV, we screened a library of 1298 compounds that were known to inhibit human aspartyl proteases. These compounds were selected by chemoinformatic structural diversity from a larger library of compounds that targeted human aspartyl proteases and has been used previously to identify hit compounds that inhibited P. falciparum growth. These hit compounds belonged to a single chemical class and were used to develop a lead compound WM382 that is a dual selective inhibitor of PMIX and PMX from P. falciparum and P. vivax. The screen utilized a FRET‐based assay with PvPMV and a fluorogenic EDANS‐DACBYL labeled peptide with the P. falciparum knob‐associated histidine‐rich protein (KAHRP) PEXEL motif amino acid sequence.
(§1) These fluorogenic assays follow protocols previously described. Compound potency was assessed with 10 point, threefold dilution series starting at 100 μM in duplicate per experiment and repeated in three independent experiments. Data were normalized to percent inhibition relative to 1% DMSO (high control) and either 1 μM WEHI‐600 for PMV and 1 μM WM382 for PMIX/PMX (low controls). IC50 values (relative inflection of dose–response curve) were calculated using a nonlinear regression four‐parameter fit analysis in DOTMATICS 5.3 (Dotmatics, Boston, MA, USA) and SPOTFIRE 7.11.1 (Goteborg, Sweden) software. The equation used was sigmoidal dose–response (variable slope), Y = bottom + (top − bottom)/(1 + 10 ((logIC50 − X) × Hill Slope)). Reported IC50 values were calculated based on the averages of three independent dataset. Assay robustness and data quality was assessed by Z′ > 0.5 (Z′ = 1 − (3 × (SD high + SD low)/(mean high − mean low))) and activity reproducibility of reference compound. WEHI‐600 (PMV) or WM382 (PMIX/PMX) were included as reference compounds in every experiment to monitor the assay performance. Any drift in activity greater than threefold from the average acceptable range and the experiment was rejected and repeated.

The test system of assay [3] is P. falciparum 3D7 asexual parasites. The assay is described as follows: P. falciparum growth inhibition assay (LDH activity, 72 h). In kind it is cell-based, Plasmodium falciparum. The note with it: Plasmodium falciparum; 3D7 asexual parasites, 72 h exposure, LDH activity; three independent experiments; read-out: Pf 3D7 EC50 (SD). The protocol:
The ability of compounds to block growth of blood stage P. falciparum parasites was determined using a growth inhibition assay (GIA) as described. Compound potency was assessed with 10 point, threefold dilution series starting at 10 μM in duplicate per experiment and repeated in three independent experiments. Data were normalized to percent viability relative to 0.1% DMSO (high growth control) and 2.5 μM chloroquine (low growth control). EC50 values (relative inflection of dose–response curve) were calculated using a nonlinear regression four‐parameter fit analysis in DOTMATICS 5.3 and SPOTFIRE 7.11.1 software. The equation used was sigmoidal dose–response (variable slope), Y = bottom + (top − bottom)/(1 + 10 ((logEC50 − X) × Hill Slope)). Reported EC50 values were calculated on the average of three independent dataset. Assay robustness and data quality was assessed by Z′ > 0.5 (Z′ = 1 − (3 × (SD high + SD low)/(mean high − mean low))) and activity reproducibility of reference compound WM382, which was included in every experiment. Any drift in WM382 activity greater than threefold from the average acceptable range and the experiment was rejected and repeated.

In assay [4] the target is T2, Plasmodium falciparum PMIX (Plasmodium falciparum, UniProt Q8ILG2).
T2 sequence (Q8ILG2 1-627): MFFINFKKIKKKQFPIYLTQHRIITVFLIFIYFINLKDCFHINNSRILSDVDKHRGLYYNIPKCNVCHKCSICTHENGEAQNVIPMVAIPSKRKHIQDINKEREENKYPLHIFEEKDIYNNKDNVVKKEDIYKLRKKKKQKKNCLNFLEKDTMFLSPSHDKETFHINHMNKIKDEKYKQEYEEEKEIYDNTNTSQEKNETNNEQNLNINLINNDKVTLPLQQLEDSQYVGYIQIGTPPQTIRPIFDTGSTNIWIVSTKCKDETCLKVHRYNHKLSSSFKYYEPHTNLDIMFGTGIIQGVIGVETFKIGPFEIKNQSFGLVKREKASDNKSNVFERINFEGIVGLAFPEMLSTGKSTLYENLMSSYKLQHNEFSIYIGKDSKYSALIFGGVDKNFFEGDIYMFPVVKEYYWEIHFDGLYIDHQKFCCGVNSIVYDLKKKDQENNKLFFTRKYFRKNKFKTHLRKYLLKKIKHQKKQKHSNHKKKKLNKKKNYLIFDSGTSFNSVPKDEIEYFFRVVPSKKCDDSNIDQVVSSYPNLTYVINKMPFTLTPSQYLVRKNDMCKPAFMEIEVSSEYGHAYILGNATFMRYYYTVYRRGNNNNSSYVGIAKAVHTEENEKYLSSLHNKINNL
Description: Plasmepsin IX fluorogenic substrate cleavage assay. Type of assay: biochemical. The note with it: P. falciparum PMIX; average of three independent experiments; read-out: PMIX IC50 (SD). The method, then: as §1

For a further assay, the target named is P. falciparum PMX (Plasmodium falciparum, UniProt Q8IAS0). The assay is described as follows: Plasmepsin X fluorogenic substrate cleavage assay. Type of assay: biochemical. The note with it: P. falciparum PMX; average of three independent experiments; read-out: PMX IC50 (SD). The protocol:
as §1

Setting [5] is: stated in text with reference to Fig. 1.

pEC50, pIC50: −log10 of the molar value. Read-outs that look alike come from different tables or passages of the source.

Chain of P. falciparum PMX (Q8IAS0 222-573): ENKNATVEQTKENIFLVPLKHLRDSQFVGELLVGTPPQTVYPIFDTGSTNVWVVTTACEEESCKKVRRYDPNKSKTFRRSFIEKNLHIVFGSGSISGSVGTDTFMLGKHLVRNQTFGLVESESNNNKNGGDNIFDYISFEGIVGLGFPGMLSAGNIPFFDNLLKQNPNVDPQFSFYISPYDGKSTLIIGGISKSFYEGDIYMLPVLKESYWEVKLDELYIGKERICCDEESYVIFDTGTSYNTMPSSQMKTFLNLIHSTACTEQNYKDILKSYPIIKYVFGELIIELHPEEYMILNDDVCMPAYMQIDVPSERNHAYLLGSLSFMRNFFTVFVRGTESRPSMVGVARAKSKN

As for `C[C@@H](NC[C@@H](O)[C@H](Cc1ccccc1)NC(=O)c1ccc(C(=O)N2CCN(C)CC2)cc1)c1ccccc1` [49c (3)], the results for the pIC50 in the assay on PMV, with PMIX and with PMX were < 6.00, 6.19 and 8.85, respectively. Further, in assay [1], the pEC50 (in general, the negative decadic logarithm of the EC50, by convention in mol/L) was 9.22.
As for `CN1C(=N)NC2(c3cc(F)ccc3F)CN(c3n[nH]cc3-c3ccccc3)CC2C1=O` (stereo not shown) [R/S‐WM447 (28), 7a‐(2,5‐difluorophenyl)‐2‐imino‐3‐methyl‐6‐(4‐phenyl‐1H‐pyrazol‐3‐yl)hexahydro‐1H‐pyrrolo[3,4‐d]pyrimidin‐4(4aH)‐one], the values for the negative logarithm of the IC50 (pIC50) (in assay [2]; in assay [4]; at P. falciparum PMX) were 6.17, 5.66 and 7.19, respectively. For the same molecule, in assay [3], the pEC50 was 5.82.
In the case of `Cc1c(NC(=O)c2cccc(C#N)c2)cccc1[C@]1(C)CC(=O)N([C@H]2CCO[C@@H](C)C2)C(=N)N1` [UCB7362 (4)], the pIC50 (as a rule, −log10 of the IC50, conventionally taken in molar units) is 6.85 in the assay with PMIX and 8.15 in the assay on PMX. Besides, the pEC50 in assay [1] is 8.00.
Turning to `CC(C)C[C@H](NC(=O)[C@@H](NC(=O)[C@H](CCONC(=N)N)NC(=O)OCc1ccccc1)C1CCCCC1)[C@@H](O)CC(=O)NCCc1ccccc1` [WEHI-601 (2)], the pIC50 was 8.30 with PMV, > 7.70 in the assay on PMV (setting [5]), < 4.30 in the assay with PMIX and 6.48 in the assay with PMX. In addition, the pEC50 in assay [1] was 7.05.
As to `CC(C)C[C@H](NC(=O)[C@@H](NC(=O)[C@H](CCONC(=N)N)NC(=O)OCc1ccccc1)C(C)C)[C@@H](O)CC(=O)NCCc1ccccc1` [WEHI-842 (1)], the pIC50 with PMV is 7.72; with PMV (setting [5]) it was > 7.70; in the assay on PMIX, < 4.30; in the assay with PMX it was 5.77. For the same molecule, in assay [1], the pEC50 is 6.37.
In the case of `CCC1(CC)CC(=O)N([C@@H]2CCOc3ccc(C(=O)N[C@H]4CC(C)(C)Oc5ccccc54)cc32)C(=N)N1` [WM382 (5)], the pIC50 in the assay with PMV is < 6.00; in the assay on PMIX it was 9.40; with PMX it was 10.40. The pEC50 in assay [1] was 9.22.

Source of the values: paper PMC12138161, “Structure–activity analysis of imino‐pyrimidinone‐fused pyrrolidines aids the development of dual plasmepsin V and plasmepsin X inhibitors” (The Febs Journal, 2025).
